For assay [1], the target named is T1, AchE (from Electrophorus electricus) (Electrophorus electricus, UniProt O42275).
T1 construct: purchased Sigma-Aldrich (Milan, Italy)
The assay can be described thus: biochemical. Here is the method:
The acetylcholinesterase (AchE) inhibitory activity was evaluated using a method described by Balkrishna et al. with slight modification (for details, see the Supporting Materials). […]
[…] IC50 values were calculated through a linear regression and expressed as means ± SD (standard deviation). They were considered statistically significant with values of p < 0.05.
Acetylcholinesterase inhibition assay
The assay mechanism forecasts that the AchE enzyme hydrolyses the substrate acetylthiocholine, resulting in the product “thiocholine” which reacts with Ellman’s reagent (5,5’-dithio-bis-(2-nitrobenzoic acid), DTNB) to produce 2-nitrobenzoate-5-mercaptothiocholine and 5-thio-2-nitrobenzoate (TNB); the latter can be detected at 415 nm. 150 µL of phosphate buffer (0.1 M), 20 microliters of the sample (final concentrations of 100, 200, […]
300 µM) and 20 µL of 0.2 U/mL AchE (from Electrophorus electricus) were treated in 96-well plates and […]

Assay [2] deals with mushroom tyrosinase. The experiment in a line: Tyrosinase inhibition assay (spectrophotometric, L-tyrosine, dopachrome at 495 nm). It is filed as biochemical, Agaricus bisporus. The conditions noted are these: mushroom tyrosinase 100 U/mL, 1 mM L-tyrosine, 37 °C; mean of three experiments; read-out: Tyrosinase inhibitory activity IC50±SD. The procedure: The tyrosinase inhibitory activity was evaluated using a method previously described with slight modification (for details, see the Supporting Materials). […]
Tyrosinase inhibition assay
30 microliters of the sample (final concentrations of 50, 100, 200 µM) and 50 µL of 100 U/mL mushroom tyrosinase were treated in 96-well plates and incubated at 37 ◦C for 15 min. Subsequently, 50 µL of 1 mM L-tyrosine was added and then reacted at 37 ◦C for 15 min. The amount of dopachrome formed was measured at 495 nm using Thermo Scientific™ Multiskan SkyHig h Microplate Spectrophotometer. Each sample has been tested in triplicate and the tyrosinase inhibitory activity was calculated using the following equation:
Tyrosinase inhibitory activity (I%) = [1 − (S − S0)/ (C − C0)] × 100 where S is the absorbance of the sample, tyrosinase, and L-tyrosine; S0 is the absorbance of the sample and L-tyrosine; C is the absorbance of tyrosinase and L-tyrosine, and C0 is the absorbance of L-tyrosine (negative […]
control). […] IC50 values were calculated through a linear regression and expressed as means ± SD (standard deviation). They were considered statistically significant with values of p < 0.05. […]

Assay [3] has as its system mushroom tyrosinase. The assay can be described thus: Tyrosinase inhibition kinetics study (Lineweaver-Burk plot). In kind it is biochemical, Agaricus bisporus. The procedure: Kinetic analysis of the tyrosinase enzyme for compound 13 was carried out using the Lineweaver–Burk double reciprocal plot. […] At 37 °C, the enzyme inhibition reaction was recorded by measuring the absorbance of the microplate reader at 495 nm for 0, 3, 6, 9, 12, and 15 min.

The mark [4] stands for this setting: 0.2 U/mL AchE, acetylthiocholine, 37 °C, mean of three experiments, read-out: AchE inhibitory activity IC50±SD.

Where two headings read alike, the source gives them in different places.

T1 sequence (O42275 24-633): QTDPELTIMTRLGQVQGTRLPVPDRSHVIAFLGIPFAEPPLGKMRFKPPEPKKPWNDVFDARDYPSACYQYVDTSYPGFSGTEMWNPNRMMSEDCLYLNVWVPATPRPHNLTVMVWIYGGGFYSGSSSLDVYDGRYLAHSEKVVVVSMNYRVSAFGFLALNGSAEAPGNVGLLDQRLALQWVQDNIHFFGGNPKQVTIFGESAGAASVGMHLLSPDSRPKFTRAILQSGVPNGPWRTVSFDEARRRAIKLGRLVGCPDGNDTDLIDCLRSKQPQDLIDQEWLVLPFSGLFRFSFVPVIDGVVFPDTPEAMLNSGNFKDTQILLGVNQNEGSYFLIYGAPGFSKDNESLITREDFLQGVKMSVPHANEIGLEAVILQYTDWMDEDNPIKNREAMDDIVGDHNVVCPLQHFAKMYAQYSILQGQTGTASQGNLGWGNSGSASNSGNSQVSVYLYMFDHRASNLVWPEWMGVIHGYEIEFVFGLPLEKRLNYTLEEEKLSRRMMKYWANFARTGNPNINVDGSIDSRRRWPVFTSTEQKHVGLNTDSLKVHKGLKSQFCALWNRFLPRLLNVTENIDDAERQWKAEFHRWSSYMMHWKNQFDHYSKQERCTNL

Consider `C[C@@H]1O[C@@H](OC[C@H]2O[C@@H](Oc3cc(O)c4c(=O)cc(-c5ccc(O)cc5)oc4c3)[C@H](O)[C@@H](O)[C@@H]2O)[C@H](O)[C@H](O)[C@H]1O` [Compound 6, Apigenin 7-O-rutinoside], for which the IC50 (usually the concentration at which inhibition is half-maximal) in assay [1] (setting [4]) was found to be 182 µM; on mushroom tyrosinase [2], 32.1 µM.
On to `C=C1C(=O)O[C@@H]2/C=C(/C)[C@@H](O)C/C=C(\C)C[C@H](OC(=O)/C(C)=C\C)[C@@H]12` [Compound 14, Nobilin], for which the values for the IC50 (in assay [1] (read-out: AchE inhibitory activity IC50±SD); at mushroom tyrosinase [2]) were 304 µM and 297 ± 7.23 µM, respectively.
As for “ꞵ-D-Glucopyranose, 1-[(2 Z)-2 methyl-2-butenoate] [Compound 5]”, the IC50 in assay [1] (setting [4]) turned out to be 388 ± 11.1 µM; at mushroom tyrosinase [2], 299 ± 7.86 µM.
Regarding `O=c1cc(-c2ccc(O)cc2)oc2cc(O)cc(O)c12` [Compound 9, Apigenin], the IC50 in assay [1] is 362 ± 10.1 µM.
With `CCC(C)O[C@@H]1O[C@H](CO)[C@@H](O)[C@H](O)[C@H]1O` (stereo partly drawn) [Compound 4, 1-Methylpropyl ꞵ-D-glucopyranoside], the IC50 is 352 ± 9.03 µM in assay [1] (setting [4]) and 412 ± 8.12 µM at mushroom tyrosinase [2].
With `COc1ccc(-c2oc3cc(O[C@@H]4O[C@H](CO)[C@@H](O)[C@H](O)[C@H]4O)c(OC)c(O)c3c(=O)c2O)cc1` [Compound 7, Camaraside], the IC50 in assay [1] (setting [4]) came out at 232 ± 9.98 µM; at mushroom tyrosinase [2], 87.4 ± 5.67 µM.
Consider `C=C1C(=O)O[C@@H]2/C=C(/C)[C@H](O)C[C@@H](O)C(=C)C[C@H](OC(=O)/C(C)=C\C)[C@@H]12` [Compound 11, 3-Epi-hydroxyisonobilin], for which the IC50 in assay [1] (setting [4]) amounted to 263 ± 11.2 µM; at mushroom tyrosinase [2] it was 286 ± 8.28 µM.
Turning to `COc1cc2ccc(=O)oc2cc1O[C@@H]1O[C@H](CO)[C@@H](O)[C@H](O)[C@H]1O` [Compound 1, Scopolin], the concentration for half-maximal inhibition (IC50) in assay [1] (setting [4]) stood at 231 µM; at mushroom tyrosinase [2], 46.8 ± 6.34 µM.
Consider `C=C1C(=O)O[C@@H]2/C=C(/C)[C@@H](O)C[C@@H](O)C(=C)C[C@H](OC(=O)/C(C)=C/C)[C@@H]12` [Compound 8, 8-Tigloylhydroxyisonobilin], for which the IC50 in assay [1] (setting [4]) was 225 µM; at mushroom tyrosinase [2], 184 ± 7.12 µM.
Consider `OC[C@H]1O[C@@H](OCCc2ccccc2)[C@H](O)[C@@H](O)[C@@H]1O` [Compound 3, Phenylethyl ꞵ-D-glucopyranoside], for which the IC50 turned out to be 281 ± 10.1 µM in assay [1] (setting [4]) and 196 ± 7.01 µM on mushroom tyrosinase [2].
In the case of `O=C(O)C[C@@H]1CCC(=O)[C@@H]1C/C=C\CCO[C@@H]1O[C@H](CO)[C@@H](O)[C@H](O)[C@H]1O` [Compound 2, Tuberonic acid glucoside], the IC50 is 343 ± 10 µM in assay [1] (setting [4]) and 192 ± 7.92 µM at mushroom tyrosinase [2].
Take `C=C1C[C@H](OC(=O)/C(C)=C\C)[C@H]2C(=C)C(=O)O[C@@H]2/C=C(/C)[C@@H](O)CC1=O` [Compound 12, Nobilinon A]: the IC50 in assay [1] (setting [4]) worked out at 244 ± 9.11 µM; at mushroom tyrosinase [2], 314 ± 8.09 µM.
Turning to `C=C1CC(OC(=O)C(C)=CC)C2C(C=C(C)C(O)CC1O)OC(=O)C2C` (stereo not shown) [Compound 13, 11,13-Dihydro-8-tigloylhydroxyisonobilin], the “Type of tyrosinase inhibition” value in the assay with mushroom tyrosinase [3] (Lineweaver-Burk double reciprocal plot) is “uncompetitive”. In addition, the “Vmax in the presence of the inhibitor” value in the assay on mushroom tyrosinase [3] (inhibitor 53.52 µg/mL, L-tyrosine 1-0.125 mM, control Vmax 42.02 µM/min) is reported as 27.25 µM/min. Also, the IC50 in assay [1] (setting [4]) was 245 ± 9.16 µM; at mushroom tyrosinase [2] it was 146 µM.
Consider `C=C1C(=O)O[C@@H]2/C=C(/C)[C@@H](O)C[C@@H](O)C(=C)C[C@H](OC(=O)/C(C)=C\C)[C@@H]12` [Compound 10, Hydroxyisonobilin], for which the results for the IC50 (in assay [1] (setting [4]); on mushroom tyrosinase [2]) were 268 ± 12.1 µM and 188 ± 6.63 µM, respectively.
For the molecule `COc1ccc(-c2cc(=O)c3c(O)c(OC)c(O)cc3o2)cc1` [Compound 15, 5,7-Dihydroxy-6-methoxy-2-(4-methoxyphenyl)-4H-1-benzopyran-4-one], the values for the IC50 (in assay [1] (setting [4]); at mushroom tyrosinase [2]) were 190 µM and 212 ± 6.76 µM, respectively.
